Publication PMC8467576, “Novel Ubiquitin Specific Protease-13 Inhibitors Alleviate Neurodegenerative Pathology” (Metabolites, 2021)

How the values were obtained:
[1] = tested on: Nissl+ cells; assay: Nissl staining neuron counts in TgA53T mice; type: in vivo, mouse; conditions: 40 mg/Kg I.P. daily for 7 days, vs DMSO
Experimental: BK50118-C is one of novel small molecule inhibitors of USP13 synthesized in our laboratory. For BK50118-C treatment, approximately 15 months old (±1 month) male and female TgA53T mice were treated with intraperitoneal injection of vehicle (DMSO) or BK50118-C at the daily dosage of 10 mg/Kg or 40 mg/Kg for 7 days. Animals were age and sex-matched in their respective treatment cohorts. All animals were sacrificed after treatment. All experiments were conducted in full compliance with the recommendations of Georgetown University Animal Care and Use Committee. These experiments were conducted under animal protocol No. 2016-1194 titled, Misfolded Protein Clearance in Neurodegeneration, which was approved by the Georgetown University IACUC. Protocol Information: IACUC Protocol Number: 2016-1194. Protocol Approval Date: 14 September 2020 Expiration Date: 14 September 2023.
Nissl staining was performed using FD Cresyl Violet Solution™ Regular Strength (FD NeuroTechnologies, Cat PS102-01, Columbia, MD, USA) as per manufacturer’s instructions. Silver staining was performed using FD NeuroSilver™ (FD NeuroTechnologies, Cat PK301,) as per manufacturer’s instructions.
Suppl Figure S3. BK50118-C improved cell survivals in TgA53T mice. Male and female TgA53T mice were treated with intraperitoneal injection of vehicle or BK50118-C at the daily dosage of 40 mg/Kg for 7 days. […]
substantia nigra (SN) H) compared to corresponding vehicles A), D) and G), verified […]
(1 picture or pasted object on this page, not shown here) […]
by quantification of Nissl+ cells in cortex C), striatum F) and SN I). Asterisk indicates statistic significant difference vs vehicle. * p<0.05 vs vehicle. Two-tailed student’s t test was used for analysis. N=3-4 mice per group. All values presented as Mean±SD.

[2] = tested on: tyrosine hydroxylase (TH); assay: Tyrosine hydroxylase staining in striatum of TgA53T mice; type: in vivo, mouse; conditions: 40 mg/Kg I.P. daily for 7 days, vs DMSO
Excerpt: To ascertain the mechanistic effects of BK50118-C on alpha-synuclein clearance, we performed immunostaining in striatum of TgA53T mice. […] We also performed the staining of tyrosine hydroxylase (TH) in the striatum of TgA53T mice. TH is the enzyme responsible for catalyzing the rate limiting step in synthesis of L-3,4-dihydroxyphenylalanine(L-DOPA) which is a precursor for dopamine (DA). Staining of TH will help to evaluate the status of DA producing neurons in the SN and their terminals in the striatum.
BK50118-C is one of novel small molecule inhibitors of USP13 synthesized in our laboratory. For BK50118-C treatment, approximately 15 months old (±1 month) male and female TgA53T mice were treated with intraperitoneal injection of vehicle (DMSO) or BK50118-C at the daily dosage of 10 mg/Kg or 40 mg/Kg for 7 days. Animals were age and sex-matched in their respective treatment cohorts. All animals were sacrificed after treatment. […]
Immunohistochemistry was performed on the 20 µm thick brain sections for evaluation of ubiquitination of alpha-synuclein. […] The optic densitometry of co-localization of ubiquitin with alpha-synuclein was measured using Image J. Tyrosine hydroxylase (TH) is the limiting enzyme in DA synthesis, so probing for TH+ neurons will help to evaluate the status of DA producing neurons in the SN and their terminals in the striatum. […]

## Fc1ccc2nccc(OCc3ccccc3)c2c1 [BK50118-C, 4-benzyloxy-6-fluoroquinoline]
[1]; cortex
  neuron counts (Nissl+ cells): significantly increased
[1]; striatum
  neuron counts (Nissl+ cells): significantly increased
[1]; substantia nigra (SN)
  neuron counts (Nissl+ cells): significantly increased
[2]
  tyrosine hydroxylase (TH) staining: did not show any noticeable effects
